ChEMBL document CHEMBL4043185, “Discovery of non-zwitterionic aryl sulfonamides as Nav1.7 inhibitors with efficacy in preclinical behavioral models and translational measures of nociceptive neuron activation” (Bioorg Med Chem, 2017)

Experiments:
physchem [1] = settings: PAMPA, pH 5.5
physchem [2] = settings: PAMPA, pH 7.4
[3] = PAMPA, pH 5.5
[4] = Clearance in mouse at 2 mg/kg, iv; format: ADME, organism-based; settings: in vivo
[5] = Volume of distribution at steady state in mouse at 2 mg/kg, iv; format: ADME, organism-based; settings: in vivo, read-out: Vdss
[6] = Cmax in mouse at 30 mg/kg, po; format: ADME, organism-based; set-up: dose 30 mg/kg, route oral; settings: in vivo
[7] = Half life in mouse at 30 mg/kg, po; format: ADME, organism-based; settings: in vivo
[8] = Oral bioavailability life in mouse at 30 mg/kg; format: ADME, organism-based; settings: in vivo
Plasma [9] = test: Plasma concentration in mouse model of chronic constriction injury-induced cold hyperalgesia at 100 mg/kg, po dosed 30 mins before testing starting 5 weeks after surgery; format: ADME, organism-based; settings: in vivo
Plasma [10] = test: Unbound plasma concentration in mouse model of chronic constriction injury-induced cold hyperalgesia at 100 mg/kg, po dosed 30 mins before testing starting 5 weeks after surgery; format: ADME, organism-based; settings: in vivo
[11] = Plasma concentration in mouse model of complete Freund's adjuvant-induced inflammatory pain at 10 mg/kg, po measured after 90 mins post dose; format: ADME, organism-based
[12] = Plasma concentration in mouse model of complete Freund's adjuvant-induced inflammatory pain at 30 mg/kg, po measured after 90 mins post dose; format: ADME, organism-based
[13] = Plasma concentration in mouse model of complete Freund's adjuvant-induced inflammatory pain at 60 mg/kg, po measured after 90 mins post dose; format: ADME, organism-based
Plasma [14] = test: Unbound plasma concentration in mouse model of complete Freund's adjuvant-induced inflammatory pain at 10 mg/kg, po measured after 90 mins post dose; format: ADME, organism-based; settings: in vivo, 1.5 h
Plasma [15] = test: Unbound plasma concentration in mouse model of complete Freund's adjuvant-induced inflammatory pain at 30 mg/kg, po measured after 90 mins post dose; format: ADME, organism-based; settings: in vivo, 1.5 h
Plasma [16] = test: Unbound plasma concentration in mouse model of complete Freund's adjuvant-induced inflammatory pain at 60 mg/kg, po measured after 90 mins post dose; format: ADME, organism-based; settings: in vivo, 1.5 h
[17] = Drug concentration in brain of mouse model of complete Freund's adjuvant-induced inflammatory pain at 10 mg/kg, po measured after 90 mins post dose; format: ADME, organism-based; settings: read-out: Drug uptake
[18] = Drug concentration in brain of mouse model of complete Freund's adjuvant-induced inflammatory pain at 30 mg/kg, po measured after 90 mins post dose; format: ADME, organism-based; settings: read-out: Drug uptake
[19] = Drug concentration in brain of mouse model of complete Freund's adjuvant-induced inflammatory pain at 60 mg/kg, po measured after 90 mins post dose; format: ADME, organism-based; settings: read-out: Drug uptake
[20] = Plasma concentration in mouse at 100 mg/kg, po measured after 30 mins post dose; format: ADME, organism-based
[21] = Plasma concentration in mouse at 100 mg/kg, po measured after 90 mins post dose; format: ADME, organism-based
[22] = Drug concentration in mouse brain at 100 mg/kg, po measured after 30 mins post dose; format: ADME, organism-based; settings: read-out: Drug uptake
[23] = Drug concentration in mouse brain at 100 mg/kg, po measured after 90 mins post dose; format: ADME, organism-based; settings: read-out: Drug uptake
[24] = Ratio of drug level in brain to plasma of mouse at 100 mg/kg, po measured after 30 mins post dose; format: ADME, organism-based; settings: read-out: BPR
[25] = Ratio of drug level in brain to plasma of mouse at 100 mg/kg, po measured after 90 mins post dose; format: ADME, organism-based; settings: read-out: BPR
[26] = Plasma concentration in mouse at 30 mg/kg, po measured after 30 mins post dose; format: ADME, organism-based
Plasma [27] = test: Unbound plasma concentration in mouse at 30 mg/kg, po measured after 30 mins post dose; format: ADME, organism-based; settings: in vivo, 0.5 h
[28] = Drug concentration in mouse dorsal root ganglion at 30 mg/kg, po measured after 30 mins post dose; format: ADME, organism-based; settings: read-out: Drug uptake
[29] = Unbound drug concentration in mouse dorsal root ganglion at 30 mg/kg, po measured after 30 mins post dose; format: ADME, organism-based; settings: in vivo, 0.5 h
[30] = Drug concentration in mouse trigeminal ganglion at 30 mg/kg, po measured after 30 mins post dose; format: ADME, organism-based; settings: read-out: Drug uptake
[31] = Plasma concentration in mouse model of formalin-induced persistent pain at 30 mg/kg, po measured after 90 mins post dose; format: ADME, organism-based
Plasma [32] = test: Unbound plasma concentration in mouse model of formalin-induced persistent pain at 30 mg/kg, po measured after 90 mins post dose; format: ADME, organism-based; settings: in vivo, 1.5 h
[33] = Drug concentration in dorsal root ganglion of mouse model of formalin-induced persistent pain at 30 mg/kg, po measured after 90 mins post dose; format: ADME, organism-based; settings: read-out: Drug uptake
[34] = Unbound drug concentration in dorsal root ganglion of mouse model of formalin-induced persistent pain at 30 mg/kg, po measured after 90 mins post dose; format: ADME, organism-based; settings: in vivo, 1.5 h
[35] = Drug concentration in trigeminal ganglion of mouse model of formalin-induced persistent pain at 30 mg/kg, po measured after 90 mins post dose; format: ADME, organism-based; settings: read-out: Drug uptake
[36] = Plasma concentration in mouse model of nociceptive flexion reflex 10 mg/kg, ip measured after 60 mins post dose; format: ADME, organism-based
[37] = Plasma concentration in mouse model of nociceptive flexion reflex 30 mg/kg, ip measured after 60 mins post dose; format: ADME, organism-based
Plasma [38] = test: Unbound plasma concentration in mouse model of nociceptive flexion reflex 10 mg/kg, ip measured after 60 mins post dose; format: ADME, organism-based; settings: in vivo, 1 h
Plasma [39] = test: Unbound plasma concentration in mouse model of nociceptive flexion reflex 30 mg/kg, ip measured after 60 mins post dose; format: ADME, organism-based; settings: in vivo, 1 h

SMILES: O=S(=O)(Nc1nccs1)c1cc(Cl)c(NC[C@H]2CCC[C@H](O)C2)cc1F (racemic)
- Papp (physchem [1]): 21.6 ×10⁻⁶ cm/s
- Papp (physchem [2]): 16.2 ×10⁻⁶ cm/s

SMILES: O=S(=O)(Nc1nccs1)c1cc(Cl)c(NC[C@H]2CC[C@@H](O)CC2)cc1F
- Papp (physchem [1]): 46.4 ×10⁻⁶ cm/s
- Papp (physchem [2]): 10.1 ×10⁻⁶ cm/s

SMILES: O=S(=O)(Nc1nccs1)c1cc(Cl)c(NCC2CCCCO2)cc1F (stereo not given)
- Papp (physchem [1]): 61 ×10⁻⁶ cm/s
- Papp (physchem [2]): 61 ×10⁻⁶ cm/s

SMILES: CC(C)(C)[C@H]1OCCC[C@@H]1CNc1cc(F)c(S(=O)(=O)Nc2nccs2)cc1Cl (racemic)
- Papp [3]: Not Active
- Papp (physchem [2]): 67.7 ×10⁻⁶ cm/s

SMILES: O=S(=O)(Nc1nccs1)c1cc(Cl)c(NCC2CCCC3(C2)OCCO3)cc1F (stereo not given)
- Papp (physchem [1]): 45.1 ×10⁻⁶ cm/s
- Papp (physchem [2]): 41.9 ×10⁻⁶ cm/s

SMILES: CC(C)(C)[C@@H]1OCCC[C@@H]1CNc1cc(F)c(S(=O)(=O)Nc2nccs2)cc1Cl (racemic)
- Papp (physchem [2]): 43.9 ×10⁻⁶ cm/s

SMILES: O=S(=O)(Nc1nccs1)c1cc(Cl)c(NC[C@H]2CCCOC2)cc1F
- clearance [4]: 13 mL/min/kg
- Vd [5]: 0.6 L/kg
- Cmax [6]: 37000 nM
- half-life [7]: 3 h
- bioavailability [8]: 47%
- concentration (Plasma [9]): 32000 nM
- Cp(f) (Plasma [10]): 740 nM
- concentration at 1.5 h [11]: 750 nM
- concentration at 1.5 h [12]: 1130 nM
- concentration at 1.5 h [13]: 2560 nM
- Cp(f) (Plasma [14]): 17 nM
- Cp(f) (Plasma [15]): 26 nM
- Cp(f) (Plasma [16]): 59 nM
- concentration at 1.5 h [17]: < 25 nM
- concentration at 1.5 h [18]: < 25 nM
- concentration at 1.5 h [19]: < 25 nM
- concentration at 0.5 h [20]: 7340 nM
- concentration at 1.5 h [21]: 3670 nM
- concentration at 0.5 h [22]: 120 nM
- concentration at 1.5 h [23]: 42 nM
- Kp at 0.5 h [24]: 0.017
- Kp at 1.5 h [25]: 0.012
- concentration at 0.5 h [26]: 13000 nM
- Cp(f) (Plasma [27]): 300 nM
- concentration at 0.5 h [28]: 1100 nM
- Drug uptake(free) [29]: 0.11 µM
- concentration at 0.5 h [30]: 5800 nM
- concentration at 1.5 h [31]: 7300 nM
- Cp(f) (Plasma [32]): 170 nM
- concentration at 1.5 h [33]: 660 nM
- Drug uptake(free) [34]: 0.07 µM
- concentration at 1.5 h [35]: 5000 nM
- concentration at 1 h [36]: 29000 nM
- concentration at 1 h [37]: 82000 nM
- Cp(f) (Plasma [38]): 660 nM
- Cp(f) (Plasma [39]): 1900 nM
- Papp (physchem [1]): 47.7 ×10⁻⁶ cm/s
- Papp (physchem [2]): 37.7 ×10⁻⁶ cm/s

SMILES: O=S(=O)(Nc1nccs1)c1cc(Cl)c(NC[C@H]2CCC[C@@H](O)C2)cc1F (racemic)
- Papp (physchem [1]): 21.6 ×10⁻⁶ cm/s
- Papp (physchem [2]): 16.2 ×10⁻⁶ cm/s

SMILES: O=S(=O)(Nc1nccs1)c1cc(Cl)c(NC[C@H]2CC[C@H](O)CC2)cc1F
- Papp (physchem [1]): 54.6 ×10⁻⁶ cm/s
- Papp (physchem [2]): 20.7 ×10⁻⁶ cm/s

SMILES: O=S(=O)(Nc1nccs1)c1cc(Cl)c(NC[C@H]2CCCO[C@@H]2c2ccccc2)cc1F (racemic)
- Papp (physchem [1]): 42.8 ×10⁻⁶ cm/s
- Papp (physchem [2]): 73.5 ×10⁻⁶ cm/s
